Data published in patent publication US20040024055A1, “Pharmaceutical composition containing the exract of saururus chinensis baill useful as an anticancer agent and a process for the preparation thereof” (priority 2000, published 2004).
Values joined by “and” are separate entries in the source; they are usually repeats but may differ in a detail not shown here. Equal values may be shown once.

Tests used:
Hep-2 [1] = test: Adhesion of cancer cell to Laminin; type: cell-based, human; details: 50 μg/ml
Procedure: (§1) After treating HNP-98701 on tissue culture plate coated with the matrices, cancer cell was attached thereupon. To be specific, 50 μl/ml of […], 2 μg/ml of laminin, 2 μg/ml of collagen and 2 μg/ml of gelatin were coated on the surface of 96-well microplate (Corning Co.) per well. After solidifying for 2 hr, HNP-98701 was added to each well and treated for 1 hr. […] After treating the substances for 1 hr, cancer cell was added to each cell, and it was cultured for 3 hr. […] After culturing these cell lines for 3 hr, they were centrifuged. After collecting biomass only, it was washed with distilled water or PBS buffer solution for three times. […] Then, absorbance was measured at 560-405 nm with automatic Eliza detector (Molecular […] Corp., USA). […] Each experiment was performed for three times repeatedly.

SK-Hep-1 [2] = test: Adhesion of cancer cell to Laminin; type: cell-based, human
Procedure: as §1

SK-MEL-28 = test: Adhesion of cancer cell to Laminin; type: cell-based, human
Procedure: as §1

NIH-3T3 [3] = test: Adhesion of cell to Collagen; type: cell-based, mouse
Procedure: as §1

[4] = system: PC-3 prostate cancer cell line; test: MTT analysis, anticancer activity; type: cell-based, human; details: 48 hr
Procedure: (§2) To be specific, SK-Hep-1 cell, which is liver cancer cell line, was added to 96-well microplate (Falcon, USA) with the concentration of 3×10^5 cells/ml by 100 μl per well. Each extracted and separated substance dissolved in DMSO was added to the well by 100 μl for the final concentration to be from 50 μg/ml to 0.0244 μg/ml, with 200 μl of final volume. Each cell was cultured for 48 hr in a culture medium of 37° C. and 5% CO2. After cultivation, 20 μl of phosphate buffer solution containing 5 mg/ml of MTT (3-[4,5-dimethylthiazol-2-yl]-2,5-diphenyltetrazoliumbromide, Sigma Co.) reagent was added to each well, and then cultured for 4 hr. After taking 100 μl of supernant from each culture medium, 100 μl of 0.04N hydrochloric acid-isopropanol was added. After letting alone overnight, absorbance was measured at 560 nm using automatic Eliza detector (Molecular Divices Corp., USA). Anticancer activity of each extracted and separated substance was calculated from the absorbance value by Equation 1 and was expressed in terms of cell.
(§3) Average Existence Rate(%)=(Absorbance of Treated Group)/(Absorbance of Control Group)×100

HS-578T = test: MTT analysis, anticancer activity; type: cell-based, human; details: MTT, 48 hr
SK-Hep-1 [5] = test: Adhesion of cancer cell to Matri-Gel; type: cell-based, human
Procedure: as §1

HT1080 = test: MTT analysis, anticancer activity; type: cell-based, human; details: 48 hr
HS27 = test: MTT analysis, cytotoxicity against normal cell line; type: cell-based, human; details: MTT, 48 hr
HS683 = test: MTT analysis, anticancer activity; type: cell-based, human; details: 48 hr
A431 = test: MTT analysis, anticancer activity; type: cell-based, human; details: 48 hr
BT-20 = test: MTT analysis, anticancer activity; type: cell-based, human; details: 48 hr
T98G = test: MTT analysis, anticancer activity; type: cell-based, human; details: 48 hr
Hep-2 [6] = test: MTT analysis, anticancer activity; type: cell-based, human; details: MTT, 48 hr
NIH-3T3 [7] = test: MTT analysis, cytotoxicity against normal cell line; type: cell-based, mouse; details: MTT, 48 hr
HeLa = test: MTT analysis, anticancer activity; type: cell-based, human; details: 48 hr
NIH-3T3 [8] = test: Adhesion of cell to Gelatin; type: cell-based, mouse
Procedure: as §1

LoVo = test: MTT analysis, anticancer activity; type: cell-based, human; details: MTT, 48 hr
SK-BR-3 = test: MTT analysis, anticancer activity; type: cell-based, human; details: 48 hr
293 = test: MTT analysis, cytotoxicity against normal cell line; type: cell-based, human; details: MTT, 48 hr
[9] = system: DU-145 prostate cancer cell line; test: MTT analysis, anticancer activity; type: cell-based, human; details: 48 hr
Procedure: as §2, §3

3T3-L1 = test: MTT analysis, cytotoxicity against normal cell line; type: cell-based, mouse; details: MTT, 48 hr
HS-746T = test: MTT analysis, anticancer activity; type: cell-based, human; details: MTT, 48 hr
SK-OV-3 = test: MTT analysis, anticancer activity; type: cell-based, human; details: MTT, 48 hr
CHO = test: MTT analysis, cytotoxicity against normal cell line; type: cell-based, Chinese hamster; details: MTT, 48 hr
[10] = system: SK-Hep-1 liver cancer cell line; test: MTT analysis, anticancer activity; type: cell-based, human; details: 48 hr
Procedure: as §2, §3

N.N.[Cl][Pt][Cl] [Cisplatin]
Adhesion Hep-2 (%) (Hep-2 [1]): 95.87% | Adhesion SK-Hep-1 (%) (SK-Hep-1 [2]; 0.5 μg/ml): 95.65% | Adhesion SK-Hep-1 (%) (SK-Hep-1 [2]; 5 μg/ml): 93.53% | Adhesion SK-Hep-1 (%) (SK-Hep-1 [2]; 50 μg/ml): 88.74% | Adhesion SK-MEL-28 (%) (SK-MEL-28; 0.5 μg/ml): 110.19% | Adhesion SK-MEL-28 (%) (SK-MEL-28; 5 μg/ml): 105.36% | Adhesion SK-MEL-28 (%) (SK-MEL-28; 50 μg/ml): 101.16% | Adhesion NIH-3T3 (%) (NIH-3T3 [3]; 0.5 μg/ml): 112.51% | Adhesion NIH-3T3 (%) (NIH-3T3 [3]; 5 μg/ml): 108.91% | Adhesion NIH-3T3 (%) (NIH-3T3 [3]; 50 μg/ml): 98.94% | IC50 PC-3 [4]: 2.4867 µg/mL | IC50 HS-578T (HS-578T): 2.3317 µg/mL | Adhesion SK-Hep-1 (%) (SK-Hep-1 [5]; 0.5 μg/ml): 96.41% | Adhesion SK-Hep-1 (%) (SK-Hep-1 [5]; 5 μg/ml): 105.27% | Adhesion SK-Hep-1 (%) (SK-Hep-1 [5]; 50 μg/ml): 108.26% | IC50 HT1080 (HT1080): 2.9512 µg/mL | IC50 HS27 (HS27): 1.7853 µg/mL | IC50 HS683 (HS683): 0.2490 µg/mL | IC50 A431 (A431): 0.4240 µg/mL | IC50 BT-20 (BT-20): 1.4578 µg/mL | IC50 T98G (T98G): 7.9216 µg/mL | IC50 Hep-2 (Hep-2 [6]): 0.5518 µg/mL | IC50 NIH-3T3 (NIH-3T3 [7]): 1.9756 µg/mL | IC50 HeLa (HeLa): 5.3358 µg/mL | Adhesion NIH-3T3 (%) (NIH-3T3 [8]; 0.5 μg/ml): 111.43% | Adhesion NIH-3T3 (%) (NIH-3T3 [8]; 5 μg/ml): 110.48% | Adhesion NIH-3T3 (%) (NIH-3T3 [8]; 50 μg/ml): 100.10% | IC50 LoVo (LoVo): 0.7318 µg/mL | IC50 SK-BR-3 (SK-BR-3): 1.1748 µg/mL | IC50 293 293: 1.1678 µg/mL | IC50 DU-145 [9]: 3.0012 µg/mL | IC50 3T3-L1 (3T3-L1): 2.7096 µg/mL | IC50 HS-746T (HS-746T): 2.7680 µg/mL | IC50 SK-OV-3 (SK-OV-3): 5.3442 µg/mL | IC50 CHO (CHO): 2.8462 µg/mL | IC50 SK-Hep-1 [10]: 5.4350 µg/mL and 4.2950 µg/mL
